Measured values taken from article PMC6930500, “Structure–Activity Relationships of 7-Substituted Dimethyltyrosine-Tetrahydroisoquinoline Opioid Peptidomimetics” (Molecules, 2019).

What was measured:
human KOR [1] = molecular target: T1, human KOR (Homo sapiens, UniProt P41145); assay: [3H]-diprenorphine competitive displacement binding, KOR; details: for Ki: membranes from CHO cells expressing human KOR, mean (SEM), n>=3 in duplicate
T1 construct: expressed in transfected cells; cell lines provided by Professor Lawrence Toll
Procedure: (§1) Each novel compound was evaluated for binding to and stimulation of KOR, MOR, and DOR. Binding affinity (Ki) was determined by competitive displacement of [^3H]-diprenorphine, a non-selective opioid receptor antagonist with similar affinity for each of the three receptors. Potency (EC50) and efficacy, expressed as percent stimulation compared to a standard agonist at each receptor, were determined by a [^35S]-GTPγS binding assay.
(§2) Membranes prepared from transfected Chinese Hamster Ovary cells stably expressing human KOR, human MOR, or human DOR were used for all assays. Cells were grown to confluence at 37 °C in 5% CO2 in 1:1 DMEM:F12 media with 10% v/v fetal bovine serum and 5% v/v penicillin/streptomycin. Membranes were prepared by washing confluent cells three times with ice cold phosphate-buffered saline (0.9% NaCl, 0.61 mM Na2HPO4, 0.38 mM KH2PO4, pH 7.4). Cells were detached from the plates by incubation in warm harvesting buffer (20 mM HEPES, 150 mM NaCl, 0.68 mM EDTA, pH 7.4) and pelleted by centrifugation at 200× g for 3 min. The cell pellet was suspended in ice-cold 50 mM Tris-HCl buffer, pH 7.4 and homogenized with a Tissue Tearor (Biospec Products, Inc, distributed by Cole-Parmer, Vernon Hills, IL, USA) for 20 s at setting 4. The homogenate was centrifuged at 20,000× g for 20 min at 4 °C, and the pellet was rehomogenized in 50 mM Tris-HCl pH 7.4 with a Tissue Tearor for 10 s at setting 2, followed by recentrifugation. The final pellet was resuspended in 50 mM Tris-HCl pH 7.4 and frozen in aliquots at −80 °C. Protein concentration was determined via Pierce BCA protein assay kit using bovine serum albumin as the standard.
(§3) Binding affinities for all test compounds at KOR, MOR, and DOR were determined by competitive displacement of [^3H]-diprenorphine as previously reported. In a 96-well plate format, cell membranes (5–10 µg of protein) and [^3H]-diprenorphine (0.2 nM) were incubated in Tris-HCl buffer (50 mM, pH 7.4) with various concentrations of test compound at 25 °C for 1 h, allowing the mixture to reach equilibrium. Nonspecific binding was determined using the opioid antagonist naloxone (10 µM), and total binding was determined using vehicle in the absence of competitive ligand. After incubation, membranes were filtered through Whatman GF/C 1.2 micron glass fiber filters and washed with 50 mM Tris-HCl buffer. The radioactivity remaining on the filters was then quantified by liquid scintillation counting after saturation with EcoLume liquid scintillation cocktail in a Microbeta 2450 (Perkin-Elmer, Waltham, MA, USA). Binding affinity (Ki) values were calculated using the Cheng–Prusoff equation via nonlinear regression analysis using GraphPad Prism software from at least three separate binding assays performed in duplicate.

human DOR [2] = molecular target: T2, human DOR (Homo sapiens, UniProt P41143); assay: [3H]-diprenorphine competitive displacement binding, DOR; details: membranes from CHO cells expressing human DOR; mean (SEM), n>=3 in duplicate
T2 construct: expressed in transfected cells; cell lines provided by Professor Lawrence Toll
Procedure: as §1, §2, §3

human KOR [3] = molecular target: T1, human KOR; assay: [35S]-GTPγS binding stimulation, KOR; format: biochemical; details: mean (SEM)
Procedure: as §1, §2
(§4) Agonist stimulation of KOR, MOR, and DOR by all test compounds was determined by [^35S]-guanosine 5′-O-[γ-thio]triphosphate ([^35S]-GTPγS) binding assays as previously reported. In a 96-well plate format, membranes from cells expressing opioid receptors as described above (10 µg of protein), [^35S]-GTPγS (0.1 nM), and guanosine diphosphate (30 µM) were incubated in GTPγS buffer (50 mM Tris-HCl, 100 mM NaCl, 5 mM MgCl2, 1 mM EDTA, pH 7.4) with various concentrations of test compound at 25 °C for 1 h. Basal stimulation was determined by incubation in the absence of any ligand. After incubation, membranes were filtered through Whatman GF/C 1.2 micron glass fiber filters and washed with GTPγS buffer with no EDTA. The radioactivity remaining on the filters was then quantified by liquid scintillation counting after saturation with EcoLume liquid scintillation cocktail in a Perkin-Elmer Microbeta 2450. Data are reported as percent stimulation compared to the effects of 10 µM standard agonists—U69,593 (KOR), DAMGO (MOR), or DPDPE (DOR). Percent stimulation and EC50 values were determined via nonlinear regression analysis using GraphPad Prism software from at least three separate assays performed in duplicate. Efficacy is expressed as percent stimulation relative to standard agonists.

human DOR [4] = molecular target: T2, human DOR; assay: [35S]-GTPγS binding stimulation, DOR; format: biochemical; details: mean (SEM), * n = 2; for EC50 DOR: CHO-human DOR membranes, dns = does not stimulate, average maximal stimulation <10% at up to 10 µM; for % Stimulation DOR: versus 10 µM standard agonist DPDPE, dns = average maximal stimulation <10% at up to 10 µM
Procedure: as §1, §2, §4

human MOR [5] = molecular target: T3, human MOR (Homo sapiens, UniProt P35372); assay: [35S]-GTPγS binding stimulation, MOR; format: biochemical; details: mean (SEM), * n = 2; for EC50: CHO-human MOR membranes, dns = does not stimulate, average maximal stimulation <10% at up to 10 µM; for Emax: versus 10 µM standard agonist DAMGO, dns = average maximal stimulation <10% at up to 10 µM
T3 construct: expressed in transfected cells; cell lines provided by Professor Lawrence Toll
Procedure: as §1, §2, §4

human MOR [6] = molecular target: T3, human MOR; assay: [3H]-diprenorphine competitive displacement binding, MOR; details: membranes from CHO cells expressing human MOR; mean (SEM), n>=3 in duplicate
Procedure: as §1, §2, §3

[7] = CHO-human KOR membranes, * n = 2, dns = does not stimulate, average maximal stimulation <10% at up to 10 µM
[8] = versus 10 µM standard agonist U69,593, dns = average maximal stimulation <10% at up to 10 µM

Cc1cc(O)cc(C)c1C[C@H](N)C(=O)N1CCc2ccc(CN3CCc4ccccc43)cc2C1 [Compound 8y, (S)-2-amino-3-(4-hydroxy-2,6-dimethylphenyl)-1-(7-(indolin-1-ylmethyl)-3,4-dihydroisoquinolin-2(1H)-yl)propan-1-one]
Ki (human KOR [1]): 2.6 nM
Ki (human DOR [2]): 1.7 nM
EC50 (human KOR [3]; [7]): 106 nM
Emax (human KOR [3]; [8]): 66%
EC50 DOR (human DOR [4]): dns *
% Stimulation DOR (human DOR [4]): dns *
EC50 (human MOR [5]): 42 nM
Emax (human MOR [5]): 65%
Ki (human MOR [6]): 2.2 nM

Cc1cc(O)cc(C)c1C[C@H](N)C(=O)N1CCc2ccc(CN3Cc4ccccc4C3)cc2C1 [Compound 8z, (S)-2-amino-3-(4-hydroxy-2,6-dimethylphenyl)-1-(7-(isoindolin-2-ylmethyl)-3,4-dihydroisoquinolin-2(1H)-yl)propan-1-one]
selectivity for MOR and DOR over KOR (human KOR [1]; binding selectivity): 43 fold
Ki (human KOR [1]): 65 nM
Ki (human DOR [2]): 1.3 nM
EC50 KOR (human KOR [3]; [7]): dns
% Stimulation KOR (human KOR [3]; [8]): dns
EC50 DOR (human DOR [4]): dns *
% Stimulation DOR (human DOR [4]): dns *
EC50 (human MOR [5]): 27 nM
Emax (human MOR [5]): 63%
Ki (human MOR [6]): 1.5 nM
